Assay results as given in patent publication US4753881A, “Purified enzyme and process therefor” (Eli Lilly and Company, priority 1986, dated 1988).

What was measured:
[1] = molecular target: T1, deacetoxycephalosporin C synthetase (expandase) (Hapsidospora chrysogena, UniProt P11935); experiment: Enzyme activity assay (HPLC): expandase-catalyzed reaction, DAOC plus DAC from penicillin N; format: biochemical, Cephalosporium acremonium; conditions: for Maximal reactivation/stimulation of expandase activity, initial to final activity: DTT 1.0 mM, ascorbate 0.25 mM, ATP 0.05 mM, purified enzyme (step 3); for Effect on expandase function of the purified enzyme: present in the incubation mixture
T1 construct: prepared by sonicating fresh cell suspensions of Cephalosporium acremonium in buffer at pH 7-8; endogenous in cells; host or cells: Cephalosporium acremonium cells (crude cell extract, then chromatographic purification)
T1 sequence (P11935 1-332): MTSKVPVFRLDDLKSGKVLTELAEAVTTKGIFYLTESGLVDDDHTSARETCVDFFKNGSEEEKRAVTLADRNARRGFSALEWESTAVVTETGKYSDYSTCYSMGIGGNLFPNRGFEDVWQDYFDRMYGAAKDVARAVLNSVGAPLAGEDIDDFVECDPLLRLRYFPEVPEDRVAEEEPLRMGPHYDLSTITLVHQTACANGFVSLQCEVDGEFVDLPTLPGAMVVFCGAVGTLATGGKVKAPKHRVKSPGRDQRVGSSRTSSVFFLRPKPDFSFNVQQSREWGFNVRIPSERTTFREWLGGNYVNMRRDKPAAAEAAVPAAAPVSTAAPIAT
Description: (§1) The activity of the enzyme, which is a reflection of its purity, is expressed herein in units (U) of activity. One unit of expandase activity is defined as the amount of the enzyme required to cause formation of 1 μmole of DAOC plus DAC per minute from penicillin N. One unit of hydroxylase activity is defined as the amount of enzyme required to cause formation of 1 μmole of DAC per minute from DAOC.
(§2) The purity of the enzyme and the extent of purification during the course of the process can be measured by determining the expandase and hydroxylase activities of the chromatographic fractions via high performance liquid chromatography (HPLC) and by analyzing protein bands of chromatographic fractions via SDS-PAGE. The expandase-catalyzed reaction is conducted for 15 minutes at 30° C. with 0.28 mM penicillin N, 0.60 mM α-ketoglutarate (αKG), 0.06 mM ferrous sulfate, […], 1.00 mM dithiothreitol, 0.05 mM ATP and 0.0003-0.003 units of the enzyme in 1 ml of 50 mM Tris-HCl, pH 7.5. The hydroxylase-catalyzedreaction is conducted at 36° C. in the same medium with deacetoxycephalosporin C at a concentration of 0.05 mM instead of penicillin N.
(§3) The enzymatic reactions were interrupted by the addition of 1 ml of ethyl alcohol. The precipitate is separated by centrifugation at 4,000×g for 5 minutes and the supernatant containing the enzyme reaction products assayed by HPLC as follows. The expandase activity is determined by monitoring formation of both DAOC and DAC from penicillin N because of the apparent bifunctionality of the enzyme. The hydroxylase activity is determined by monitoring the formation of DAC from DAOC.
(§4) Aliquots (20 to 100 μl ) of the supernatant solutions are assayed for DAOC and DAC by HPLC using external standards.
(§5) A preferred HPLC system comprises the components: Model 721 system controller, Model 730 data module, Model 510EF pumps, Model 710B Waters Intelligent Sample Processor and a Lambda-Max Model 481 LC spectrophotometer (Waters Assoc., Milford, Mass.). DAC and DAOC are preferably separated by a radially packed compressed μBondapak-NH4column (0.8×10 cm) (Waters Assoc.) with a mobile phase of 2% acetic acid-0-4% methyl alcohol-6-7% acetonitrile-87-92% water; pH 3.8, a flow rate of 1.5-2.0 ml/min. and detection at 260 nm (cephalosporin chromophore). The assays are reproducible with 2% deviations for duplicate analyses of both the expandase and the hydroxylase catalyzed reactions.
For expandase assays, quantitation for DAC (in addition to that of DAOC) is corrected for penicillin N due to their coelution.

[2] = molecular target: T2, hydroxylase activity of the expandase-hydroxylase enzyme (Hapsidospora chrysogena, UniProt P11935); experiment: Enzyme activity assay (HPLC): hydroxylase-catalyzed reaction, DAC from DAOC; format: biochemical, Cephalosporium acremonium; conditions: for Maximal reactivation/stimulation of hydroxylase activity, initial to final activity: DTT 1.0 mM, ascorbate 0.25 mM, ATP 0.05 mM, purified enzyme (step 3); for Effect on hydroxylase function of the purified enzyme: present in the incubation mixture
T2 construct: prepared by sonicating fresh cell suspensions of Cephalosporium acremonium in buffer at pH 7-8; endogenous in cells; host or cells: Cephalosporium acremonium cells (crude cell extract, then chromatographic purification)
T2 sequence (P11935 1-332): T1 sequence (P11935 1-332)
Description: as §1, §2, §3, §4
as §5, with “reactions. […]” for “reactions.”

| Reactivation of hydroxylase activity [2] | Maximal reactivation/stimulation of hydroxylase activity, initial to final activity [2] [U × 10^-3] | Effect on hydroxylase function of the purified enzyme [2] | Compound | Reactivation of expandase activity [1] | Maximal reactivation/stimulation of expandase activity, initial to final activity [1] [U × 10^-3] | Effect on expandase function of the purified enzyme [1] |
| --- | --- | --- | --- | --- | --- | --- |
| reversibly reactivated | 0 to 0.23 | stimulated | O[C@H](CS)[C@H](O)CS (racemic) [DTT, dithiothreitol] | reversibly reactivated | 0 to 50 | stimulated |
| – | – | inhibited | [Zn+2] [zinc ion] | – | – | inhibited |

The next lines start with the molecule.

| Compound | Reactivation of hydroxylase activity [2] | Maximal reactivation/stimulation of hydroxylase activity, initial to final activity [2] [U × 10^-3] | Effect on hydroxylase function of the purified enzyme [2] | Reactivation of expandase activity [1] | Maximal reactivation/stimulation of expandase activity, initial to final activity [1] [U × 10^-3] | Effect on expandase function of the purified enzyme [1] |
| --- | --- | --- | --- | --- | --- | --- |
| O=C1O[C@H]([C@@H](O)CO)C(O)=C1O [Ascorbate] | reversibly reactivated | 0 to 0.81 | stimulated | reversibly reactivated | 0 to 90 | stimulated |
| Nc1ncnc2c1ncn2[C@@H]1O[C@H](COP(=O)(O)OP(=O)(O)OP(=O)(O)O)[C@@H](O)[C@H]1O [ATP] | – | 0.57 to 0.61 | stimulated | – | 38 to 52 | stimulated |
| O=C(O)c1cc(SSc2ccc([N+](=O)[O-])c(C(=O)O)c2)ccc1[N+](=O)[O-] [5,5'-dithiobis-2-nitrobenzoic acid] | – | – | inhibited | – | – | inhibited |
